These are literature values, as cited in article PMC13601336 (Frontiers in Pharmacology, 2026).

The series addresses T1, UGT1A1 (Homo sapiens, UniProt P22309).
T1 construct: purchased BD Gentest (Woburn, MA, USA)
T1 sequence (P22309 26-533): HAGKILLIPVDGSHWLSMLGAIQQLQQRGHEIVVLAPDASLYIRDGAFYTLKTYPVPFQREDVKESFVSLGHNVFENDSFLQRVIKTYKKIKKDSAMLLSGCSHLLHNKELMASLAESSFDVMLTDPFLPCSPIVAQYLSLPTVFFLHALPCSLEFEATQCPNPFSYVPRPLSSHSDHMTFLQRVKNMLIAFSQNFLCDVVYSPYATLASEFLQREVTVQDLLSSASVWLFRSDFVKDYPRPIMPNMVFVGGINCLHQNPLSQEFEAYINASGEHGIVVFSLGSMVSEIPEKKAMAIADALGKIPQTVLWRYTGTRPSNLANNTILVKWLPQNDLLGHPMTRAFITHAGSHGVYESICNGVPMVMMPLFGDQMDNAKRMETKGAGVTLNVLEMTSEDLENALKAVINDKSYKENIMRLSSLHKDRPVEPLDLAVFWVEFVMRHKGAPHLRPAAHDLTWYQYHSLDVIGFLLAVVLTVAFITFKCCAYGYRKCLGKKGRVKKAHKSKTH
To be noted: ref Zhang et al., 2021.

Each structure is given as a SMILES string. pKi: −log10 of the molar value.

A word on the pKi: it is the Ki on a negative log10 scale, so that one unit is a factor of ten. On to `O=c1c(O)c(-c2ccc(O)c(O)c2)oc2cc(O)cc(O)c12` [Quercetin, quercetin], for which the pKi is 5.66.
